Assays:
[1] = system: human RPE cells; assay: ZO-1 tight junction protein immunostaining; assay type: cell-based
Protocol: Cells were fixed with 4% paraformaldehyde for 15 minutes, permeabilized with 0.2% Triton in PBS, blocked with 1% BSA for 30 minutes. Primary antibodies were used at 1:100 dilution in PBS. The corresponding Alexafluor 647 secondary antibodies were used for the respective primary antibody and imaged on a Zeiss Observer.D1 fluorescent microscope.

[2] = system: fibroblastic cultures derived from RPE; assay: Reversal of epithelial to mesenchymal transition in fibroblastic cultures derived from RPE; assay type: cell-based, human; details: 10 mM nicotinamide, media changed 3 times a week; micrograph at 8 weeks
Protocol: Epithelial to mesenchymal transition (EMT) was determined in fibroblastic cultures as follows: cells were plated 30,000 cells per 1 cm^2 tissue culture plate in DMEM/F12 with 5% FBS with the addition of 10 ng/ml TGFβ and 10 ng/ml TNFα to induce epithelial to mesenchymal transition (EMT). The extent of EMT was determined by the morphologic changes and immunohistochemical stains described above. Epithelial cells were plated at 30,000 cells/cm^2 and cultured until confluent (left image), after which 10 mM nicotinamide was added to the media, which was changed 3 times a week for 8 weeks (FIG. 10). The swirling fibroblastic morphology seen prior to addition of nicotinamide seen at the ‘3 week’ stage indicate the RPE cells have undergone EMT, losing their cobblestone morphology.

[3] = system: RPE cells; assay: Dose response for prevention of epithelial to mesenchymal transition, SNAIL staining read-out; assay type: cell-based, human; details: all concentrations: 10 μM, 100 μM, 1 mM or 10 mM nicotinamide; 5 days
Protocol: Cells were fixed with 4% paraformaldehyde for 15 minutes, permeabilized with 0.2% Triton in PBS, blocked with 1% BSA for 30 minutes. Primary antibodies were used at 1:100 dilution in PBS. The corresponding Alexafluor 647 secondary antibodies were used for the respective primary antibody and imaged on a Zeiss Observer.D1 fluorescent microscope. A dose response curve for the effect of nicotinamide on the prevention of epithelial to mesenchymal transition was determined using SNAIL expression as a read-out. RPE cells were cultured at 30,000 cells/well in a 24 well plate and cultured for 5 days in the presence of media containing 10 μM, 100 μM, 1 mM or 10 mM nicotinamide or control (no nicotinamide). The media was changed 3 times, and replaced with media containing the same concentration of nicotinamide, after which the cells were fixed and stained with fluorescently-labeled anti-SNAIL antibody. At all concentrations, SNAIL staining was decreased by application of nicotinamide.

[4] = system: Adult human RPE; assay: Transepithelial resistance (TER) of RPE on transwells; assay type: cell-based; details: measured weekly for one month; presence vs absence of nicotinamide
Protocol: The transepithelial resistance (TER) is measured during and after treatment of hRPE cells cultured in 12-well 0.4 μm transwell inserts using the EVOM2 World Precision Instruments Volt Ohm Meter protocol. Resistance is measured in Ω-cm^2 and recorded prior to treatment to confirm that all wells are at approximately the same TER. The TER of a cell-free transwell insert of ˜110 Ω-cm^2 is subtracted to obtain the resistance of the cellular epithelium. TER is measured in each well after treatment to assess the change caused by nicotinamide. Adult human RPE were plated on semi-permeable polyester transwells and transepithelial resistance was measured weekly for one month.

[5] = system: RPE cells; assay: RPE morphology in vitro by light microscopy; assay type: cell-based, human; details: 10 mM nicotinamide vs no nicotinamide
Text: (§1) Primary adult RPE cells were obtained from cadaveric human eyes under IRB-approved protocols, within 36-hours of the time of death. The anterior half of the eye was removed followed by the vitreous, and retina, isolating the posterior eyecup with the RPE/Bruch's membrane/choroid complex intact (as described in Blenkinsop T A, et al. The culture and maintenance of functional retinal pigment epithelial monolayers from adult human eye. 2012; Salero E et al. Adult human RPE can be activated into a multipotent stem cell that produces mesenchymal derivatives. Cell Stem Cell. 2012; 10(1):88-95). […] Once the primary (passage zero) cells reached confluence (˜20 days), the FBS concentration was reduced to 5%. Then, following the protocol developed by Salero S et al., 2012 (supra), the RPE were activated to proliferate in RPE medium with 5% FBS. The expanded RPE cells were plated at 30,000 cells per well in a 24-well plate and cultured in DMEM/F12, 5% FBS. Proliferation rates were measured by manual and/or automated counting of cell number as a function of time.
Cultures were imaged at 32× on a Zeiss Observer.D1 fluorescent microscope.
Cultured RPE cells were analyzed by light microscopy.

[6] = system: RPE cells; assay: RPE cell proliferation assay (Ki67 immunostaining, cell number); assay type: cell-based, human; details: 10 mM nicotinamide; 5 days in DMEM/F12, 5% FBS
Text: as §1
Cells were fixed with 4% paraformaldehyde for 15 minutes, permeabilized with 0.2% Triton in PBS, blocked with 1% BSA for 30 minutes. Primary antibodies were used at 1:100 dilution in PBS. […]
RPE cells were plated at 30,000 cells per well in a 24 well plate and cultured for 5 days in DMEM/F12, 5% FBS and cell proliferation was measured.

[7] = system: Adult human RPE; assay: Oxidative stress analysis: TBHP-induced TIMP-3 expression; details: 500 μM TBHP 2 hours daily; presence vs absence of nicotinamide; quantitative PCR
[8] = system: adult human RPE cells; assay: Gene expression analysis by real time PCR of RPE and mesenchymal markers; assay type: cell-based; details: 10 mM nicotinamide, relative to control

## NC(=O)c1cccnc1 [nicotinamide, Nicotinamide]
[1]; 10 mM nicotinamide vs control RPE cells
  pattern of ZO-1 expression: localized expression of tight junction protein ZO-1 peripherally around the cell borders
[1]; 10 mM nicotinamide vs no nicotinamide
  ZO1 staining (junctional marker): high levels of ZO1 staining
[2]
  cell morphology after EMT (reversal of EMT): revert to their physiologic cobblestone morphology
[3]
  SNAIL staining: decreased
[4]
  transepithelial resistance: increased over time
[5]
  RPE cell morphology: maintained their characteristic cobblestone morphology
[6]
  immunostaining for the cell proliferation marker Ki67: decreased immunostaining
  total cell number: decrease in the total cell number
[7]
  TBHP-induced TIMP3 expression relative to day 0: suppressed
[8]
  MITF mRNA expression (RPE marker): increased
  RPE65 mRNA expression (RPE marker): increased
  SLUG mRNA expression (mesenchymal marker): decreased
  SNAIL mRNA expression (mesenchymal marker): decreased
  TWIST mRNA expression (mesenchymal marker): decreased

Reference: patent US20150148383A1, “Methods for Inhibiting or Reversing Epiretinal Membrane Formation” (Regenerative Research Foundation, priority 2013, published 2015)
